Measurements: PMC6150310, “Synthesis and Structure–Activity Relationships of 4-Morpholino-7,8-Dihydro-5H-Thiopyrano[4,3-d]pyrimidine Derivatives Bearing Pyrazoline Scaffold” (Molecules : A Journal of Synthetic Chemistry and Natural …, 2017)

How the values were obtained:
PI3Kα = PI3Kα (Homo sapiens, UniProt P42336); assay: PI3Kα Kinase-Glo Luminescent Kinase Assay; format: biochemical; conditions: 1 µM ATP, 60 min, average of two determinations
MCF-7 cell line = assay: MTT cytotoxicity assay, MCF-7; format: cell-based; conditions: Homo sapiens, MCF7, 72 h, average of two determinations, NA = No Activity
Protocol: (§1) Taking GDC-0941 as the reference compound, the target compounds (7a–l and 8a–l) were evaluated for the cytotoxicity against four cancer cell lines A549, PC-3, MCF-7, and HepG2 by 3-(4,5-dimethylthiazolyl-2)-2,5-diphenyltetrazolium bromide (MTT) cell proliferation assay. In order to confirm the types of target compound, selective or mixed-type inhibitors, the selected compound, 8d, was measured for its PI3Kα kinase inhibitory activity together with reference compounds GDC-0941 and PI103 via the Kinase-Glo® Luminescent […] assay. The results expressed as inhibition rates or IC50 values are summarized in Table 1 and Table 2, where the values are the average of at least two independent experiments.
(§2) The in vitro cytotoxic activities of Compounds 7a–l and 8a–l were evaluated with A549, PC-3, HepG2, and MCF-7 cell lines by the standard MTT assay, with GDC-0941 as a positive control. The cancer cell lines were cultured in minimum essential medium (MEM) supplement with 10% fetal bovine serum (FBS). Approximately, 4 × 10^3 cells, suspended in MEM medium, were plated onto each well of a 96-well plate and incubated in 5% CO2 at 37 °C for 24 h. The test compounds at the indicated final concentrations were added to the culture medium, and cell cultures continued for 72 h. Fresh MTT was added to each well at a terminal concentration of […] and incubated with cells at 37 °C for 4 h. The formazan crystals were dissolved in 100 µL of DMSO in each well, and the absorbency at 492 nm (for absorbance of MTT formazan) and 630 nm (for the reference wavelength) was measured with an enzyme linked immunosorbent assay (ELISA) reader (MR-96A Mindray Elisa Microplate Reader, Guangzhou, China). All compounds were tested three times in each of the cell lines. The results expressed as inhibition rates or IC50 were the averages of two determinations and calculated using the Bacus Laboratories Inc. Slide Scanner (Bliss) software (the Bacus Laboratories Inc. Slide Scanner (BLISS) system, Lombard, IL, USA).

[1] = tested on: four cancer cell lines (A549, PC-3, MCF-7, HepG2); assay: MTT cytotoxicity assay, four cancer cell lines together; format: cell-based; conditions: Homo sapiens, range over A549, PC-3, MCF-7, HepG2, read-out: IC50 values against four cancer cell lines
Protocol: as §1
The in vitro cytotoxic activities of Compounds 7a–l and 8a–l were evaluated with A549, PC-3, HepG2, and MCF-7 cell lines by the standard MTT assay, with GDC-0941 as a positive control. The cancer cell lines were cultured in minimum essential medium (MEM) supplement with 10% fetal bovine serum (FBS). […] The formazan crystals were dissolved in 100 µL of DMSO in each well, and the absorbency at 492 nm (for absorbance of MTT formazan) and 630 nm (for the reference wavelength) was measured with an enzyme linked immunosorbent assay (ELISA) reader (MR-96A Mindray Elisa Microplate Reader, Guangzhou, China). […]

A549 cell line = assay: MTT cytotoxicity assay, A549; format: cell-based; conditions: Homo sapiens, A549, 72 h, average of two determinations, NA = No Activity
Protocol: as §1, §2

PC-3 cell line = assay: MTT cytotoxicity assay, PC-3; format: cell-based; conditions: Homo sapiens, PC-3, 72 h, average of two determinations, NA = No Activity
Protocol: as §1, §2

HepG2 cell line = assay: MTT cytotoxicity assay, HepG2; format: cell-based; conditions: Homo sapiens, HepG2, 72 h, average of two determinations, NA = No Activity
Protocol: as §1, §2

PI3Kα, sequence (P42336 whole entry): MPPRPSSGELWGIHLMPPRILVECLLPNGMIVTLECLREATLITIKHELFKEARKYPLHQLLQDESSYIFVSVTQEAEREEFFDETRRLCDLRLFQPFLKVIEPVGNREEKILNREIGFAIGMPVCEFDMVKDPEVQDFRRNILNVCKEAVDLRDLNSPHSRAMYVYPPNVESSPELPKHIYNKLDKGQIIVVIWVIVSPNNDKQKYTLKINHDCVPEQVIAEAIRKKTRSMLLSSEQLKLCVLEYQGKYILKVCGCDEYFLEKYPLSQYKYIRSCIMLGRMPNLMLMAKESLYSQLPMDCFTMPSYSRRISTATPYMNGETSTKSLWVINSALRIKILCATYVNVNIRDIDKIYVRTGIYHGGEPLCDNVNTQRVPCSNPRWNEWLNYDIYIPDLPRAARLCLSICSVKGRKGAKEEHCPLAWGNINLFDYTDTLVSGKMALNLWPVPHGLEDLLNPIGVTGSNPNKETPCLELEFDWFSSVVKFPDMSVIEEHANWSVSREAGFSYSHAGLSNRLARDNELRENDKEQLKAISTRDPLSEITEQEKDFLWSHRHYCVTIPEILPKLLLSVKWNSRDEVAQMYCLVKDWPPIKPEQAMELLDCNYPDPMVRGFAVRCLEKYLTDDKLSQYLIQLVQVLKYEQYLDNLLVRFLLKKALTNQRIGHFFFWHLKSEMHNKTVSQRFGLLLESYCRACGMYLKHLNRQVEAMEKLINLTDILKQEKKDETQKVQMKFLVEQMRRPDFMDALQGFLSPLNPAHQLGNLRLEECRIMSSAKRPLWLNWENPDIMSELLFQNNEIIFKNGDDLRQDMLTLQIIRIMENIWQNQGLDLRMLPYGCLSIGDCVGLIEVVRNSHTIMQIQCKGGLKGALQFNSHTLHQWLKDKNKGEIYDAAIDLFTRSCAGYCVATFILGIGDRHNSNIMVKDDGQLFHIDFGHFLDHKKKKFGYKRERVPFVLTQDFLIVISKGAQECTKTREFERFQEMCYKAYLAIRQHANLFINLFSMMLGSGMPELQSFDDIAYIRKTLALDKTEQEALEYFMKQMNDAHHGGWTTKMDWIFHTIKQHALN
PI3Kα, sequence (P27986 whole entry partner): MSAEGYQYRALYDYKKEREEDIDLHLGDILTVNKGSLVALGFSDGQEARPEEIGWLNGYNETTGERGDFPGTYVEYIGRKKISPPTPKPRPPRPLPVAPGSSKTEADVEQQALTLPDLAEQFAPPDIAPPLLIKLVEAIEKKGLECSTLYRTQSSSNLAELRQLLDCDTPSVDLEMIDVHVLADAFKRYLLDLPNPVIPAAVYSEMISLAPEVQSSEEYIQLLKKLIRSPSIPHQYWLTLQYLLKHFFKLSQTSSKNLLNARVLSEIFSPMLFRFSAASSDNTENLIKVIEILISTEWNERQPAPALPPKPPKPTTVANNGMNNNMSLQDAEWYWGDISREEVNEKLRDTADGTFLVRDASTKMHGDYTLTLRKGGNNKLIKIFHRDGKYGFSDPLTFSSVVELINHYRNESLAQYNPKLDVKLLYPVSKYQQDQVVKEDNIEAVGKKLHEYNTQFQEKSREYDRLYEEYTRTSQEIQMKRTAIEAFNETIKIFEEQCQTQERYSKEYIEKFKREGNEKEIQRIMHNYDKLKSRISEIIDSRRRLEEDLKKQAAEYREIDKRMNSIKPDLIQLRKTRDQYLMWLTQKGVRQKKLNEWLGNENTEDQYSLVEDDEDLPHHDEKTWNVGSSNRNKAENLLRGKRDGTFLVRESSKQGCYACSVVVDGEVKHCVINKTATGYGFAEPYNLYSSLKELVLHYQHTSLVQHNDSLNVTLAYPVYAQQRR

Row | SMILES | IC50 (PI3Kα) | IC50 (MCF-7 cell line) | IC50 [1] | IC50 (A549 cell line) | melting point | IC50 (PC-3 cell line) | IC50 (HepG2 cell line)
1 | O=S1(=O)CCc2nc(N3N=C(c4ccc(F)cc4)C[C@@H]3c3ccc(Cl)c(Cl)c3)nc(N3CCOCC3)c2C1 (racemic) [Compound 8d, (R)-2-(5-(3,4-Dichlorophenyl)-3-(4-fluorophenyl)-4,5-dihydro-1H-pyrazol-1-yl)-4-morpholino-7,8-dihydro-5H-thiopyrano[4,3-d]pyrimidine 6,6-dioxide] | 8.38 ± 0.21 µM | 10.3 ± 0.94 µM | 6.02 to 10.3 µM | – | – | – | –
2 | c1ccc(C2=NN(c3nc4c(c(N5CCOCC5)n3)CSCC4)[C@@H](c3ccccc3)C2)cc1 [Compound 7a, (R)-4-(2-(3,5-Diphenyl-4,5-dihydro-1H-pyrazol-1-yl)-7,8-dihydro-5H-thiopyrano[4,3-d]pyrimidin-4-yl)morpholine] | – | 21.7 ± 0.78 µM | – | 21.7 ± 0.76 µM | 139 to 142 °C | 28.8 ± 2.4 µM | 20.3 ± 1.15 µM
3 | COc1ccc(C2=NN(c3nc4c(c(N5CCOCC5)n3)CSCC4)[C@@H](c3ccc(F)cc3)C2)cc1 [Compound 7h, (R)-4-(2-(5-(4-Fluorophenyl)-3-(4-methoxyphenyl)-4,5-dihydro-1H-pyrazol-1-yl)-7,8-dihydro-5H-thiopyrano[4,3-d]pyrimidin-4-yl)morpholine] | – | 30.3 ± 0.88 µM | – | 26.7 ± 0.88 µM | 116 to 118 °C | 29.8 ± 0.89 µM | 20.5 ± 0.67 µM
4 | COc1ccc(C2=NN(c3nc4c(c(N5CCOCC5)n3)CS(=O)(=O)CC4)[C@@H](c3ccc(F)cc3)C2)cc1 [Compound 8h, (R)-2-(5-(4-Fluorophenyl)-3-(4-methoxyphenyl)-4,5-dihydro-1H-pyrazol-1-yl)-4-morpholino-7,8-dihydro-5H-thiopyrano[4,3-d]pyrimidine 6,6-dioxide] | – | 33.9 ± 0.45 µM | – | 35 ± 0.74 µM | 140 to 142 °C | 26.6 ± 0.33 µM | 32.9 ± 2.82 µM
